Reference: patent US10973832B2, “Muscarinic M1 receptor agonists” (Heptares Therapeutics Limited, priority 2011, dated 2021)

Columns and labels:
Assay type in all cases: cell-based
[1] = biological target: T1, human muscarinic M1 receptor (Homo sapiens, UniProt P11229); experiment: Phospho-ERK1/2 assay, muscarinic M1; details: for EC50: CHO cells expressing human M1, phospho-ERK1/2 Alphascreen, read-out: pEC50 M1 (converted); for Emax: CHO, read-out: % Emax cf. ACh (M1)
T1 sequence (P11229 1-460): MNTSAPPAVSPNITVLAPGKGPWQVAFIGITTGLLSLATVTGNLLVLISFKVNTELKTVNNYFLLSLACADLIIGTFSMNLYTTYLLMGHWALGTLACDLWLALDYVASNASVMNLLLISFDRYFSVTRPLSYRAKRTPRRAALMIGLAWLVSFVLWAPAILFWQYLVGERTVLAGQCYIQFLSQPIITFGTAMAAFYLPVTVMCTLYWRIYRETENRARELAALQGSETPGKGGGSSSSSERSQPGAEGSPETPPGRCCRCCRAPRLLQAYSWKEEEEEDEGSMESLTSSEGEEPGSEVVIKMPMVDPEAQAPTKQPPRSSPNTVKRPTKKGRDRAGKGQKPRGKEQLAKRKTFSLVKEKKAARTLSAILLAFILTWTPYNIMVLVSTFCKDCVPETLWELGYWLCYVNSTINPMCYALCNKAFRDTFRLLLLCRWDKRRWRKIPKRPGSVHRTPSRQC
Procedure: (§1) Functional assays were performed using the Alphascreen Surefire phospho-ERK1/2 assay (Crouch & Osmond, Comb. Chem. High Throughput Screen, 2008). ERK1/2 phosphorylation is a downstream consequence of both Gq/11 and Gi/o protein coupled receptor activation, making it highly suitable for the assessment of M1, M3 (Gq/11 coupled) and M2, M4 receptors (Gi/o coupled), rather than using different assay formats for different receptor subtypes. CHO cells stably expressing the human muscarinic M1, M2, M3 or M4 receptor were plated (25K/well) onto 96-well tissue culture plates in MEM-alpha+10% dialysed FBS. Once adhered, cells were serum-starved overnight. Agonist stimulation was performed by the addition of 5 μL agonist to the cells for 5 min (37° C.). Media was removed and 50 μL of lysis buffer added. After 15 min, a 4 μL sample was transferred to 384-well plate and 7 μL of detection mixture added. Plates were incubated for 2 h with gentle agitation in the dark and then read on a PHERAstar plate reader.
(§2) pEC50 and Emax figures were calculated from the resulting data for each receptor subtype.

[2] = biological target: T2, human muscarinic M3 receptor (Homo sapiens, UniProt P20309); experiment: Phospho-ERK1/2 assay, muscarinic M3; details: for EC50: CHO cells expressing human M3, phospho-ERK1/2 Alphascreen, read-out: pEC50 M3 (converted); for Emax: CHO, read-out: % Emax cf. ACh (M3)
T2 construct: expressed in transfected cells
T2 sequence (P20309 whole entry): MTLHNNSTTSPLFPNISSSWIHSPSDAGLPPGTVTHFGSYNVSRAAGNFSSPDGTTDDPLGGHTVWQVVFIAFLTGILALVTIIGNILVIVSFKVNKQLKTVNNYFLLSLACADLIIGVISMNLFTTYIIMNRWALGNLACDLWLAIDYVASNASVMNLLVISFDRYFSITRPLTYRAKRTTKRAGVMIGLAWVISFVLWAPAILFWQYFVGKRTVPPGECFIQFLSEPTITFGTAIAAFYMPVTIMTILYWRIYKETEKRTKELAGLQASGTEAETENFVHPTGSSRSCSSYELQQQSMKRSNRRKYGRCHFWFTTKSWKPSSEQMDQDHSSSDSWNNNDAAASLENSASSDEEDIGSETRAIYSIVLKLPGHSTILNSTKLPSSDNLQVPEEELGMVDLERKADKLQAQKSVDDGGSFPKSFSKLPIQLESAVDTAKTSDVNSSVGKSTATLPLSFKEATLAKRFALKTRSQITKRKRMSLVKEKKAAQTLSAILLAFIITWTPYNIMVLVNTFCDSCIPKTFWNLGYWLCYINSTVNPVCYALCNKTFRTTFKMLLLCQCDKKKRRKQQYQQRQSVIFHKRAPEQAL
Procedure: as §1, §2

[3] = biological target: T3, human muscarinic M4 receptor (Homo sapiens, UniProt P08173); experiment: Phospho-ERK1/2 assay, muscarinic M4; details: for EC50: CHO cells expressing human M4, phospho-ERK1/2 Alphascreen, read-out: pEC50 M4 (converted); for Emax: CHO, read-out: % Emax cf. ACh (M4)
T3 construct: expressed in transfected cells
T3 sequence (P08173 1-479): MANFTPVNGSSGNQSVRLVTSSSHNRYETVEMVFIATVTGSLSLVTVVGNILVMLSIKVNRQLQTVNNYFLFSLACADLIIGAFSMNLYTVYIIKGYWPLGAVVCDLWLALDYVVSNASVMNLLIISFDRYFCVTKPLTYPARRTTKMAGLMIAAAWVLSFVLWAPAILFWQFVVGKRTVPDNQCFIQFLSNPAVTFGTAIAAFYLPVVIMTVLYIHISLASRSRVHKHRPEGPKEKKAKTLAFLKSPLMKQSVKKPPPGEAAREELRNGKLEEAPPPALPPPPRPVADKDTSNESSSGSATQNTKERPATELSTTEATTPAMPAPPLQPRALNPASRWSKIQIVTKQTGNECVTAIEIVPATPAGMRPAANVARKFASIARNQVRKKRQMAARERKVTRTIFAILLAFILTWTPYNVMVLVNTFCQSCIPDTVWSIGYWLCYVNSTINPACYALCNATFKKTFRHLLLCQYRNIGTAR
Procedure: as §1, §2

[4] = biological target: T4, human muscarinic M2 receptor (Homo sapiens, UniProt P08172); experiment: Phospho-ERK1/2 assay, muscarinic M2; details: for EC50: CHO cells expressing human M2, phospho-ERK1/2 Alphascreen, read-out: pEC50 M2 (converted); for Emax: CHO, read-out: % Emax cf. ACh (M2)
T4 sequence (P08172 1-466): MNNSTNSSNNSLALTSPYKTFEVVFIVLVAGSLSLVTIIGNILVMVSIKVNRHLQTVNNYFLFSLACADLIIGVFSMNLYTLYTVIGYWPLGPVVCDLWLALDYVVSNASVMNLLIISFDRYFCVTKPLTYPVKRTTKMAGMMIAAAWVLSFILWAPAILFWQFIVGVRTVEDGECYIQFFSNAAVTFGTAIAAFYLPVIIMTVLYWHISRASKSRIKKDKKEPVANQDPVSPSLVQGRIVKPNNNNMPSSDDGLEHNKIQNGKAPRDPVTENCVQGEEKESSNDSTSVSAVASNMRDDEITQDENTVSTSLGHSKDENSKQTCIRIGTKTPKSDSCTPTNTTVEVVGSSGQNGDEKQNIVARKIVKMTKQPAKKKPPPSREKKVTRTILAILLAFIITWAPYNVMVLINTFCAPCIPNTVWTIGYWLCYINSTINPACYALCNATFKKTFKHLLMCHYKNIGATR
Procedure: as §1, §2

Structure (SMILES)	EC50 [1]	Emax [1]	EC50 [2]	Emax [2]	EC50 [3]	Emax [3]	EC50 [4]	Emax [4]
CCOC(=O)N1CCCC(N2CCC(F)(C(=O)NC3(C)CCCC3)CC2)CC1 (stereo not shown) [Example 48, ethyl 4-(4-fluoro-4-((1-methylcyclopentyl)carbamoyl)piperidin-1-yl)azepane-1-carboxylate]	61.7 nM	88%	> 20000 nM	12%	537 nM	73%	> 20000 nM	12%
CCOC(=O)N1CCCC(N2CCC(F)(C(=O)NC3(C)CCC3)CC2)CC1 (stereo not shown) [Example 50, ethyl 4-(4-fluoro-4-((1-methylcyclobutyl)carbamoyl)piperidin-1-yl)azepane-1-carboxylate]	19.5 nM	102%	> 20000 nM	2%	603 nM	90%	> 20000 nM	17%
CCOC(=O)N1CCCC(N2CCC(F)(C(=O)NC3CCCC3)CC2)CC1 (stereo not shown) [Example 51, ethyl 4-(4-fluoro-4-((cyclopentyl)carbamoyl)piperidin-1-yl)azepane-1-carboxylate]	51.3 nM	107%	> 20000 nM	6%	708 nM	93%	> 20000 nM	12%
CCOC(=O)N1CCCC(N2CCC(F)(C(=O)NCC3CC3)CC2)CC1 (stereo not shown) [Example 52, ethyl 4-(4-fluoro-4-((cyclopropylmethyl)carbamoyl)piperidin-1-yl)azepane-1-carboxylate]	229 nM	95%	> 20000 nM	5%	501 nM	84%	> 20000 nM	9%
CCOC(=O)N1CCCC(N2CCC(F)(C(=O)NCC3CCCC3)CC2)CC1 (stereo not shown) [Example 53, ethyl 4-(4-fluoro-4-((cyclopentylmethyl)carbamoyl)piperidin-1-yl)azepane-1-carboxylate]	97.7 nM	122%	> 20000 nM	17%	977 nM	90%	> 20000 nM	9%
CCOC(=O)N1CCCC(N2CCC(F)(C(=O)NC(C)(C)C3CC3)CC2)CC1 (stereo not shown) [Example 54, ethyl 4-(4-fluoro-4-((2-cyclopropylpropan-2-yl)carbamoyl)piperidin-1-yl)azepane-1-carboxylate]	49 nM	124%	> 20000 nM	6%	229 nM	114%	> 20000 nM	15%
CCOC(=O)N1CCCC(N2CCC(F)(C(=O)NC3CCC3)CC2)CC1 (stereo not shown) [Example 55, ethyl 4-(4-fluoro-4-((cyclobutyl)carbamoyl)piperidin-1-yl)azepane-1-carboxylate]	186 nM	75%	> 20000 nM	0%	1350 nM	69%	> 20000 nM	17%
CCOC(=O)N1CCCC(N2CCC(C)(C(=O)NCC(C)C)CC2)CC1 (stereo not shown) [Example 56, ethyl 4-(4-methyl-4-((2-methylpropyl)carbamoyl)piperidin-1-yl)azepane-1-carboxylate]	64.6 nM	108%	> 20000 nM	8%	1350 nM	46%	> 20000 nM	4%
C#CCOC(=O)N1CCCC(N2CCC(C(=O)NCC(C)C)CC2)CC1 (stereo not shown) [Example 57, prop-2-yn-1-yl-4-(4-((2-methylpropyl)carbamoyl)piperidin-1-yl)azepane-1-carboxylate]	93.3 nM	93%	> 20000 nM	8%	417 nM	82%	> 20000 nM	5%
CCOC(=O)N1CCC[C@H](N2CCC(C(=O)NCC(C)C)CC2)CC1 [Example 63]	69.2 nM	107%	> 20000 nM	5%	646 nM	89%	> 20000 nM	5%
CCOC(=O)N1CCC[C@@H](N2CCC(C(=O)NCC(C)C)CC2)CC1 [Example 64]	107 nM	104%	> 20000 nM	9%	3240 nM	81%	> 20000 nM	5%
CCOC(=O)N1CCC[C@@H](N2CCC(C(=O)NC3(C)CCC3)CC2)CC1 [Example 66, ethyl (4R)-4-{4-[(1-methylcyclobutyl)carbamoyl]piperidin-1-yl}azepane-1-carboxylate]	275 nM	94%	> 20000 nM	0%	2450 nM	66%	> 20000 nM	12%
CCOC(=O)N1CCC[C@H](N2CCC(C(=O)NC(C)(C)C)CC2)CC1 [Example 67, ethyl (4S)-4-[4-(tert-butylcarbamoyl)piperidin-1-yl]azepane-1-carboxylate]	126 nM	114%	> 20000 nM	4%	501 nM	104%	> 20000 nM	48%
CCOC(=O)N1CCCC(N2CCC(C(=O)NCC3(C)CCC3)CC2)CC1 (stereo not shown) [Example 69, ethyl 4-(4-{[(1-methylcyclobutyl)methyl]carbamoyl}piperidin-1-yl)azepane-1-carboxylate]	10.5 nM	120%	> 20000 nM	14%	240 nM	78%	> 20000 nM	12%
CCOC(=O)N1CCCC(N2CCC(C(=O)NC3(C(F)(F)F)CCC3)CC2)CC1 (stereo not shown) [Example 70]	269 nM	107%	> 20000 nM	3%	794 nM	55%	> 20000 nM	5%
CCOC(=O)N1CCCC(N2CCC(C(=O)NC3(CC)CCC3)CC2)CC1 (stereo not shown) [Example 74]	52.5 nM	132%	> 20000 nM	4%	282 nM	97%	> 20000 nM	19%
[2H]C([2H])([2H])C([2H])(C([2H])([2H])[2H])C([2H])([2H])NC(=O)C1CCN(C2CCCN(C(=O)OCC)CC2)CC1 (stereo not shown) [Example 75, ethyl 4-(4-{[2-(^2H3)methyl(^2H6)propyl]carbamoyl}piperidin-1-yl)azepane-1-carboxylate]	87.1 nM	102%	> 20000 nM	13%	794 nM	87%	> 20000 nM	14%
